Values of other authors, collected in US4436732A, “Medicated compound for treating diseases infected by virus of the herpes group” (priority 1981, dated 1984).

Details: known preparations, background; cited from earlier work

O=c1[nH]cc(F)c(=O)[nH]1 [5-fluorouracyl]
toxicity: rather toxic
